Results on 22 compounds are retold here after ChEMBL document CHEMBL1137828, “Spiroquinazolinones as novel, potent, and selective PDE7 inhibitors. Part 2: Optimization of 5,8-disubstituted derivatives” (Bioorg Med Chem Lett, 2004).

Values after ≈ are worked out from the molar mass of the structure shown.

Data set [1] concerns the target High affinity 3',5'-cyclic-AMP phosphodiesterase 7A (Homo sapiens, UniProt Q13946). As to the kind of experiment: Inhibition of human PDE7A1 expressed in baculovirus infected Sf9 cells.
The nature of data set [2]: Solubility in HCl/KCl buffer at pH 1. The class given is physicochemical.
The nature of data set [3]: Clearance in rats when administered at a dose of 0.5 mg/kg i.v. Particulars: rat, in vivo, iv. The class given is ADME, organism-based. The arrangement: dose 0.5 mg/kg, route intravenous.
Data set [4] addresses 3',5'-cyclic-AMP phosphodiesterase 4D (Homo sapiens, UniProt Q08499). The data set is described as follows: Inhibition of human PDE4D3 expressed in baculovirus infected Sf9 cells.
The target of data set [5] is T1, Phosphodiesterase 1 (Homo sapiens, UniProt P54750+Q01064+Q14123). As to the kind of experiment: Inhibition of human PDE1 partially purified from THP-1 cells. The format is cell-free.
Data set [6] in a line: Oral bioavailability in rat (dose 2.5 mg/kg). The format is ADME, organism-based. Particulars: in vivo.
Data set [7] is described as follows: Solubility in Na2HPO4/NaH2PO4 buffer at pH 7.4. The format is physicochemical.
Data set [8] addresses cGMP-specific 3',5'-cyclic phosphodiesterase (Homo sapiens, UniProt O76074). As to the kind of experiment: Inhibition of human PDE5 partially purified from MCF-7 cells. The class given is cell-free, MCF7.
Data set [9] deals with cGMP-inhibited 3',5'-cyclic phosphodiesterase 3A (Homo sapiens, UniProt Q14432). The data set is described as follows: Inhibition of human PDE3A3 expressed in baculovirus infected Sf9 cells.
Data set [10] in a line: Half-life in rats after peroral administration of 2.5 mg/kg. The format is ADME, organism-based. Also noted: dose 2.5 mg/kg, route oral. Particulars: rat, in vivo, po.
The nature of data set [11]: Volume of distribution in rats when administered at a dose of 0.5 mg/kg i.v. The format is ADME, organism-based. The arrangement: dose 0.5 mg/kg, route intravenous. As to conditions: rat, in vivo, iv.
For data set [12], the target named is T1, Phosphodiesterase 1. The data set is described as follows: Inhibition of human PDE1 expressed in baculovirus infected Sf9 cells.

3',5'-cyclic-AMP phosphodiesterase 4D, sequence (Q08499 whole entry): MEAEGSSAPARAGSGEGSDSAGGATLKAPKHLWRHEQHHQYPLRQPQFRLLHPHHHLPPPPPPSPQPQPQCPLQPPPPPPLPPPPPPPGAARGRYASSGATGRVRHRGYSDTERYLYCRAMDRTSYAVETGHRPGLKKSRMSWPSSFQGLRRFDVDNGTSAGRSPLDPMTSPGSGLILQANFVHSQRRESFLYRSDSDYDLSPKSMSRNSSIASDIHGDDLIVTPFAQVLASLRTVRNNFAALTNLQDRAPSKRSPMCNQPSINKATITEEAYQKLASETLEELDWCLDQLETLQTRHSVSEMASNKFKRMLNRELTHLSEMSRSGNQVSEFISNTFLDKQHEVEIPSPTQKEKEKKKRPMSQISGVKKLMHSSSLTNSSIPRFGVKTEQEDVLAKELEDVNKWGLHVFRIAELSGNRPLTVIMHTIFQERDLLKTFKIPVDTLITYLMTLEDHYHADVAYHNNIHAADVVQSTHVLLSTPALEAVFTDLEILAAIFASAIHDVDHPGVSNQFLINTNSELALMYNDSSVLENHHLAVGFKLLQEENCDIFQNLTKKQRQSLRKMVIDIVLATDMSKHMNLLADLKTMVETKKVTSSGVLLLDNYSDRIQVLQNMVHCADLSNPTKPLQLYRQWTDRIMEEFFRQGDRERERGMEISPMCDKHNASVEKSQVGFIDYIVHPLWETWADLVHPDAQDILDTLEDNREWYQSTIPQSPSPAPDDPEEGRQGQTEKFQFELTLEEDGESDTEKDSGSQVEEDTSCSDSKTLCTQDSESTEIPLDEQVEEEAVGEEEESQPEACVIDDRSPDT
cGMP-inhibited 3',5'-cyclic phosphodiesterase 3A, sequence (Q14432 whole entry): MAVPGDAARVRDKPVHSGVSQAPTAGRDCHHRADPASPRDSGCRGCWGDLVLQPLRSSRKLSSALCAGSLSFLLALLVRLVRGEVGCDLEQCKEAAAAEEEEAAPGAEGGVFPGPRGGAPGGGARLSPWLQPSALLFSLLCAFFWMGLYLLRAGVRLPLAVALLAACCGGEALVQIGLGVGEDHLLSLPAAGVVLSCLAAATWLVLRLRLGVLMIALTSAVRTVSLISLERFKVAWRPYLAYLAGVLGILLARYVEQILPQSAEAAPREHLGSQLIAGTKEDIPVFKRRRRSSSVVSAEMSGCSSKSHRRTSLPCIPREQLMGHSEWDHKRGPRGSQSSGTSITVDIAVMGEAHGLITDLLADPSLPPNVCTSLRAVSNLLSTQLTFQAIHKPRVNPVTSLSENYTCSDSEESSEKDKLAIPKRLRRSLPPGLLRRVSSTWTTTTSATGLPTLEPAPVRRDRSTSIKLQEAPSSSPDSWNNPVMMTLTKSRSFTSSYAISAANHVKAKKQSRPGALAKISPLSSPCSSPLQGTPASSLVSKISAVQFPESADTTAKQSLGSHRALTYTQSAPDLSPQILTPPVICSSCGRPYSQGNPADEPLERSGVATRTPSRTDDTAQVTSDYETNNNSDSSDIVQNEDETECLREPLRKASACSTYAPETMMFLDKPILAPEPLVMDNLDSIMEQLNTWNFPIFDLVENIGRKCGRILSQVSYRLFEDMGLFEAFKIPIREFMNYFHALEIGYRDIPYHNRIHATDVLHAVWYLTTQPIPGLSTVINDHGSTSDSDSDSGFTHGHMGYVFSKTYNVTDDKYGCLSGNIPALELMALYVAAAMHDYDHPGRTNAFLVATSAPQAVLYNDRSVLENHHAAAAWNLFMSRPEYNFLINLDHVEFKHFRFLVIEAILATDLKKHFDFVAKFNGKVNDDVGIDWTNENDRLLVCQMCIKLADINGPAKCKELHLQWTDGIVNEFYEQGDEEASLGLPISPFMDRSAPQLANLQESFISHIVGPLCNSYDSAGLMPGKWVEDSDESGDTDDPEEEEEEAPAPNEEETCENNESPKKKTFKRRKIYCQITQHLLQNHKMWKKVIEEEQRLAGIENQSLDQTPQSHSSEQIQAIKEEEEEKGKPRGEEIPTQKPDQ
High affinity 3',5'-cyclic-AMP phosphodiesterase 7A, sequence (Q13946 whole entry): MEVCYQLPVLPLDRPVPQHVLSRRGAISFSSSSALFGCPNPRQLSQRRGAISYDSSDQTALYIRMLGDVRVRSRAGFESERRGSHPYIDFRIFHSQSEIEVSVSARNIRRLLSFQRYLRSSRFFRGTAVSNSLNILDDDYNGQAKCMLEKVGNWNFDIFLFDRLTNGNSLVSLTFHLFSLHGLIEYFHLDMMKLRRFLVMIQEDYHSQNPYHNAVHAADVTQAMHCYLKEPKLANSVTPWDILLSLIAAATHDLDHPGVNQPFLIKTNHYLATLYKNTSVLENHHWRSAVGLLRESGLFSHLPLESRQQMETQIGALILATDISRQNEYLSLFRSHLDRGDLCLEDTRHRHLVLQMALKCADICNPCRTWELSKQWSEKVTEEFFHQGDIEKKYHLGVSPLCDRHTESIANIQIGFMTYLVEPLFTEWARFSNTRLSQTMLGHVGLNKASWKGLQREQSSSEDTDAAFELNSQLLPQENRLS

For the compound `O=C1Nc2c(Cl)ccc(O)c2C2(CCCCC2)N1`, the half-maximal inhibitory concentration (IC50) in data set [1] turned out to be 0.01 µM.
For the compound `O=C(O)CNCCOc1ccc(Cl)c2c1C1(CCCCC1)NC(=O)N2`, the solubility in [2] is above 500 µg/mL; in data set [7] it was 230 µg/mL (≈ 625 µM). In data set [3], this compound registered a clearance of 39.9 mL/min/kg. Also, the half-inhibitory concentration (IC50) in [4] was 14.7 µM; in data set [1], 0.04 µM; in [5] it was 29.7 µM; in data set [8] it was above 101 µM; in data set [9], above 101 µM. The bioavailability in data set [6] is 6.5%. Moreover, the half-life in data set [10] is 2.7 h. Further, the distribution volume (Vd) in [11] was 0.47 L/kg.
On to `NCCOCCOc1ccc(Cl)c2c1C1(CCCCC1)NC(=O)N2`, for which the solubility in data set [2] and in data set [7] was above 500 µg/mL in each case. The IC50 is 99 µM in data set [4]; 1.62 µM in data set [1]; above 101 µM in data set [5]; above 101 µM in data set [8]; above 101 µM in data set [9].
On to `O=C1Nc2c(Cl)ccc(OCCO)c2C2(CCCCC2)N1`, for which the values for the solubility in [2] and in [7] were 11 µg/mL (≈ 35.4 µM) and 18 µg/mL (≈ 57.9 µM), respectively. The compound further yielded a clearance in [3] of 33.6 mL/min/kg. Also, the IC50 in data set [4] is 12.2 µM; in data set [1], 0.05 µM; in data set [5], 10.5 µM; in [8] it was above 91 µM; in [9], above 73 µM. The same compound showed a bioavailability in data set [6] of 27%. Besides, the half-life in data set [10] was 1.5 h. In addition, the volume of distribution (Vd) in data set [11] came out at 1.41 L/kg.
In data set [1], `COc1ccc(Cl)c2c1C1(CCCCC1)NC(=O)N2` displayed an IC50 of 0.01 µM.
For the compound `O=C1Nc2c(Cl)ccc(OCc3ccc(C(=O)O)o3)c2C2(CCCCC2)N1`, the results for the solubility in data set [2] and in data set [7] were below 1 µg/mL and 100 µg/mL (≈ 256 µM), respectively. Further, the IC50 in data set [4] is 1.13 µM; in [1], 0.016 µM; in [5] it was 1.6 µM; in [8], above 101 µM; in data set [9], 10.8 µM.
As to `NCCOc1ccc(Cl)c2c1C1(CCCCC1)NC(=O)N2`, the solubility in [2] was above 500 µg/mL; in data set [7], 190 µg/mL (≈ 613 µM). For the same compound, the 50% inhibitory concentration (IC50) in data set [4] is 10.5 µM; in [1] it was 1.04 µM; in [5], 33 µM; in data set [8], 73.2 µM; in data set [9], above 101 µM.
For the compound `CN(C)CCOc1ccc(Cl)c2c1C1(CCCCC1)NC(=O)N2`, the values for the solubility in [2] and in [7] were above 500 µg/mL and 195 µg/mL (≈ 577 µM), respectively. Besides, the IC50 in data set [4] was 3.28 µM; in data set [1], 0.15 µM; in [5] it was 19 µM; in data set [8], 74 µM; in [9], above 101 µM.
`O=C1Nc2c(Cl)ccc(Cl)c2C2(CCCCC2)N1` had an IC50 in data set [1] of 0.01 µM.
Turning to `O=C1Nc2c(Cl)ccc(OCc3noc(O)n3)c2C2(CCCCC2)N1`, the solubility in [2] was below 1 µg/mL; in [7], 113 µg/mL (≈ 310 µM). Further, the concentration for half-maximal inhibition (IC50) in data set [4] is 0.82 µM; in data set [1] it was 0.0035 µM; in data set [5], 0.61 µM; in [8], above 101 µM; in data set [9], 21.9 µM.
For the compound `O=C1Nc2c(Cl)ccc(OCCN3CCOCC3)c2C2(CCCCC2)N1`, the solubility in data set [2] was above 500 µg/mL; in data set [7] it was 4 µg/mL (≈ 10.5 µM). This compound had a clearance in data set [3] of 62.8 mL/min/kg. The 50% inhibitory concentration (IC50) was 7.35 µM in [4]; 0.03 µM in data set [1]; 29 µM in data set [5]; above 101 µM in data set [8]; above 101 µM in data set [9]. In data set [6], the bioavailability was 3.7%. Moreover, the half-life in [10] was 0.32 h. Also, the Vd in [11] came out at 1.02 L/kg.
On to `O=C1Nc2c(Cl)ccc(OCCCS(=O)(=O)O)c2C2(CCCCC2)N1`, for which the solubility in [2] and in data set [7] was above 500 µg/mL throughout. The IC50 in data set [4] was 2.41 µM; in data set [1], 0.01 µM; in [5], 0.65 µM; in [8], 60 µM; in [9] it was 12.7 µM.
In the case of `CN(C)CCCOc1ccc(Cl)c2c1C1(CCCCC1)NC(=O)N2`, the IC50 in data set [4] was 23.7 µM; in data set [1], 1.24 µM; in data set [5], above 101 µM; in [8], 98 µM; in [9], above 101 µM.
In the case of `CNCC(O)COc1ccc(Cl)c2c1C1(CCCCC1)NC(=O)N2` (stereo unspecified), the solubility in [2] and in data set [7] was above 500 µg/mL in each case. The IC50 in data set [4] was 12 µM; in data set [1] it was 0.21 µM; in data set [5], above 101 µM; in data set [8] it was above 101 µM; in data set [9] it was above 101 µM.
Consider `CNCCOc1ccc(Cl)c2c1C1(CCCCC1)NC(=O)N2`, for which the solubility in data set [2] and in [7] was above 500 µg/mL in each case. The half-maximal inhibitory concentration (IC50) in data set [4] was 53.2 µM; in data set [1], 0.96 µM; in data set [5] it was 72.4 µM; in data set [8] it was above 101 µM; in data set [9] it was above 101 µM.
As for `O=C(O)COc1ccc(Cl)c2c1C1(CCCCC1)NC(=O)N2`, the values for the solubility in data set [2] and in [7] were 1 µg/mL (≈ 3.08 µM) and above 500 µg/mL, respectively. Moreover, the clearance in [3] worked out at 39.4 mL/min/kg. For the same compound, the half-inhibitory concentration (IC50) was 15 µM in data set [4]; 0.04 µM in data set [1]; 4.76 µM in data set [5]; above 101 µM in data set [8]; above 68 µM in data set [9]. The same compound came in with a bioavailability in [6] of 21%. In addition, the half-life in data set [10] was 1.4 h. For the same compound, the Vd in [11] turned out to be 1.04 L/kg.
For `CCOC(=O)c1ccc(COc2ccc(Cl)c3c2C2(CCCCC2)NC(=O)N3)o1`, the half-maximal inhibitory concentration (IC50) in data set [4] was determined as 1.02 µM; in data set [1], 0.01 µM; in data set [5], 2.98 µM; in data set [8] it was 80 µM; in data set [9], 78 µM.
As to `O=C1Nc2c(Cl)cccc2C2(CCCCC2)N1`, the IC50 in [1] was found to be 0.17 µM.
On the same count and under the same terms, then `Cc1ccc(Cl)c2c1C1(CCCCC1)NC(=O)N2`, with 0.1 µM.
Turning to `O=C1Nc2c(Cl)ccc(OCc3nn[nH]n3)c2C2(CCCCC2)N1`, the solubility is below 1 µg/mL in data set [2] and 345 µg/mL (≈ 989 µM) in data set [7]. Moreover, the concentration for half-maximal inhibition (IC50) in data set [4] was 0.32 µM; in data set [12], 0.32 µM; in data set [1], 0.004 µM; in data set [8], above 88 µM; in data set [9], 11.8 µM.
In the case of `CN(C)CC(O)COc1ccc(Cl)c2c1C1(CCCCC1)NC(=O)N2` (stereo unspecified), the solubility in data set [2] is above 500 µg/mL; in [7], 137 µg/mL (≈ 372 µM). Also, the IC50 is 55 µM in [4]; 0.4 µM in [1]; above 101 µM in [5]; above 101 µM in data set [8]; above 101 µM in data set [9].
Take `N#CCOc1ccc(Cl)c2c1C1(CCCCC1)NC(=O)N2`: the solubility in data set [2] and in data set [7] was 4 µg/mL (≈ 13.1 µM) in each case. Further, the IC50 was 1.7 µM in [4]; 0.02 µM in data set [1]; 5.86 µM in [5]; above 101 µM in data set [8]; 94 µM in [9].

For orientation: IC50 means the midpoint of a concentration-inhibition curve. What is called solubility is the dissolved amount per volume that the medium holds. High values mean much dissolved substance, low ones little dissolved substance. One may read the clearance as a measure of how efficiently the substance is removed, as volume per time. As usually defined, the bioavailability is the share of a dose that reaches the circulation, judged against a reference dose that is usually intravenous. As a reminder, the half-life is the time needed for the level to fall by half in the phase considered. High values mean slow loss, low ones fast loss. As usually defined, the Vd is a proportionality between amount in the body and measured concentration, not a real space. A low value points to little distribution into tissue.
